Experimental data: patent US20210077478A1, “METHOD OF COUNTERING RESPIRATORY DEPRESSION VIA ACTIVATION OF NEURONAL HETEROMERIC NICOTINIC ACETYLCHOLINE RECEPTORS” (THE GOVERNORS OF THE UNIVERSITY OF ALBERTA, priority 2017, published 2021)
“Also recorded” adds a separate entry of the source. Read-outs that look alike come from different tables or passages of the source.

What was measured:
adult rats [1] = test: Baseline ventilation after drug alone, plethysmography in adult rats; assay type: in vivo, rat; conditions: for baseline minute ventilation: drug alone: A85380 0.03, Rivanicline 3, NS9283 10, PNU282987 1-15 mg/kg
[2] = tested on: brainstem-spinal cord in vitro preparations; test: Brainstem-spinal cord in vitro preparation, respiratory rhythm (C4 / XII nerve recordings); set-up: species or system rat; conditions: for fR in the presence of the antagonist: antagonist 400 nM
Experimental: Brainstem-spinal cord and medullary slice preparations were obtained from neonatal Sprague-Dawley rats. The rats were anesthetized with metofane, decerebrated, and the brainstem-spinal cord (BSSC) and medullary slice dissected (Smith et al., 1990; 1991). BSSC was continuously perfused with modified Krebs solution. A single rhythmic medullary slice was cut (500-650 μm thick) and continuously perfused with bathing solution. Inspiratory activity was recorded from the fourth ventral cervical nerve roots of BSSC or XII nerve rootlets of the medullary slice using an extracellular glass electrode.
Neonatal (postnatal day 1-3) rats were anesthetized with metofane, decerebrated and the brainstem-spinal cord dissected as previously reported. The neuraxis was continuously perfused at 27°±1° C. (5 ml/min; chamber volume, 3 ml) with modified Kreb's solution that contained 128 mM NaCl, 3.0 mM KCl, 1.5 mM CaCl2, 1.0 mM MgCl2, 23.5 mM NaHCO3, 0.5 mM NaH2PO4, and 30 mM d-glucose equilibrated with 95% O2-5% CO2 (pH 7.4).
A single transverse slice containing the preBötC and more caudal reticular formation regions was then cut (700 μm thick) from brainstem-spinal cord preparations perfused with a bathing solution identical to that used for B SSC preparation with the exception that the KCl concentration was increased to 9 mM to facilitate long-term generation of stable rhythm. Recordings from the fourth ventral cervical nerve roots of brainstem-spinal cord or hypoglossal nerve roots of medullary slice preparations were amplified, rectified, low-pass filtered, and recorded to a computer, using an analog-digital converter (Axon Instruments Digidata; Molecular Devices, Sunnyvale, Calif.) and data acquisition software (Axon Instruments AxoScope).

newborn rats [3] = test: Propofol-induced respiratory depression in newborn rats (P3); assay type: in vivo, rat
Experimental: In a further experiment, A85380 (0.03 mg/kg, ip) and propofol (30 mg/kg, ip) were co-administered in newborn rats in vivo (P3). In the control group, vehicle (saline) was administered with 30 mg/kg propofol (FIG. 6A). […] Without being bound by any theory, targeting of α4β2 nAChRs may be a potent means of alleviating the effects of drugs (e.g. propofol) causing respiratory depression via GABAA receptor mechanisms in vivo.

rat pups = conditions: in vivo
(α4)3(β2)2 receptors = (α4)3(β2)2 receptors (Homo sapiens, UniProt P17787+P43681); conditions: Zwart et al., 2008; Carbone et al., 2009; cited from earlier work
(α4)2(β2)3 receptors = (α4)2(β2)3 receptors (Homo sapiens, UniProt P17787+P43681); conditions: Zwart et al., 2008; Carbone et al., 2009; cited from earlier work
[4] = tested on: medullary slice (preBötC and XII motoneurons); set-up: species or system rat
newborn rats [5] = test: Fentanyl-induced respiratory depression in rat pups (postnatal day 3-4), plethysmography; assay type: in vivo
[6] = tested on: P0 rat brainstem-spinal cord preparation with C2 hemisection; test: C2 hemisection spinal cord injury model, brainstem-spinal cord preparation, C4 recordings; conditions: A85380 25 nM bath
Excerpt: One of the primary causes of morbidity and mortality associated with spinal cord injury is loss of normal functioning of the respiratory musculature. This is caused by a reduced synaptic drive from respiratory rhythm generating centers onto respiratory spinal motoneurons. An in vitro newborn brainstem spinal cord rat model of spinal cord injury (Zimmer and Goshgarian, 2005) was used to test the efficacy of targeting α4β2 nAChRs to alleviate weak respiratory drive. […] Rectified and integrated signals were made from both C4 recordings from a P0 rat brainstem-spinal cord preparation showing the respiratory activity both contralateral (A: top traces) and ipsilateral (B: bottom traces) to one side C2 hemisection. There was a marked reduction in neural activity after the hemisection in ipsilateral nerve, but respiratory-like activity was still observed occasionally and was correlated with the respiratory activity on the contralateral nerve.

adult rats [7] = test: Formalin test (licking and lifting) in adult rats; assay type: in vivo, rat
adult rats [8] = conditions: rat, in vivo, sc, 0.06 mg/kg
[9] = oral administration, compared with sazetidine-A (Kong et al. 2015); cited from earlier work
adult rats [10] = conditions: rat, in vivo, iv

Sequence of (α4)2(β2)3 receptors (P43681 29-627 limits assumed): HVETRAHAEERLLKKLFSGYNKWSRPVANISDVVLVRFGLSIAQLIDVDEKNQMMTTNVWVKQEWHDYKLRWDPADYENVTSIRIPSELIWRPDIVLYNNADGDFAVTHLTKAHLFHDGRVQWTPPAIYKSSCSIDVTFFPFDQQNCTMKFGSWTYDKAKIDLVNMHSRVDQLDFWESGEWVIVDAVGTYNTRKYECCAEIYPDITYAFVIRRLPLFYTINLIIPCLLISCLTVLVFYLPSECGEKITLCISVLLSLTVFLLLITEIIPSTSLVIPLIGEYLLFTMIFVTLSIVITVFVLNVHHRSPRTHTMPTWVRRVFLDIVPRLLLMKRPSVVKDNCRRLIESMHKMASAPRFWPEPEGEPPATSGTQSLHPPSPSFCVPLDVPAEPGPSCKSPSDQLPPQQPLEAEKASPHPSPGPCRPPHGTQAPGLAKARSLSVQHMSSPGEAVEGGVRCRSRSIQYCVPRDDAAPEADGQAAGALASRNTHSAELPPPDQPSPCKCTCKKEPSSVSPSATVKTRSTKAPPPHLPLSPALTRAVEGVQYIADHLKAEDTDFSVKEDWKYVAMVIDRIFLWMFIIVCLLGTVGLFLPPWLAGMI
Sequence of (α4)2(β2)3 receptors (P17787 26-502): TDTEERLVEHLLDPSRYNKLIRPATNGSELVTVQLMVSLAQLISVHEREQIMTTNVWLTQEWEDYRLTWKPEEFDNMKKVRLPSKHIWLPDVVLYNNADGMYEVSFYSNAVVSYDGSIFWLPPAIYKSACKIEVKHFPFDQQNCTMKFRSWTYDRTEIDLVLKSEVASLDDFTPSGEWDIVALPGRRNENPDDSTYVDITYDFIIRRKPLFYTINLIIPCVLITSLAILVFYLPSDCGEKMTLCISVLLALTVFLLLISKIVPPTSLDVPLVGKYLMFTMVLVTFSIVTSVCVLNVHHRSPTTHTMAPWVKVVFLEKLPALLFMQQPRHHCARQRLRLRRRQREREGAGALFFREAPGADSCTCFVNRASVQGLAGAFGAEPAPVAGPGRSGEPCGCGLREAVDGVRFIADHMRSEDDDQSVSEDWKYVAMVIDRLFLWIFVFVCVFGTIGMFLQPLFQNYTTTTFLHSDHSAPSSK
Sequence of (α4)3(β2)2 receptors (P43681 29-627 limits assumed): as the sequence (P43681 29-627 limits assumed) above
Sequence of (α4)3(β2)2 receptors (P17787 26-502): as the sequence (P17787 26-502) above

Q: Which baseline minute ventilation (adult rats [1]) does the source give for `N#Cc1cccc(-c2nc(-c3cccnc3)no2)c1` [NS9283, 3-[3-(3-Pyridinyl)-1,2,4-oxadiazol-5yl]benzonitrile] here?
A: 103.3±4.2 % of control

Q: And the baseline respiratory amplitude ([2]; C4 discharge, A85380 25 nM, Rivanicline 0.5 μM, NS9283 15 μM)?
A: without marked effects

Q: What about the baseline respiratory frequency ([2]; C4 discharge, bath A85380 25 nM, Rivanicline 0.5 μM, NS9283 15 μM, PNU282987 up to 20 μM (Example 3)) of the same compound?
A: increased baseline respiratory frequency

Q: And the “reversal of DAMGO-induced respiratory depression (frequency and amplitude)” value (“reversal … (frequency and amplitude)” for short) ([2]; bath after DAMGO: A85380 25 nM, Rivanicline 0.5 μM, NS9283 15 μM, PNU282987 1-20 μM (Example 3))?
A: clear reversal

Q: For `CC(C)c1cccc(C(C)C)c1O` [propofol], which “duration of propofol respiratory depression” value (newborn rats [3]; propofol 30 mg/kg ip) is on record?
A: over 30 minutes

Q: And the “onset of propofol respiratory depression” value (newborn rats [3]; propofol 30 mg/kg ip)?
A: ≤ 5 min

Q: And the “respiratory depression by propofol” value (newborn rats [3]; propofol 30 mg/kg ip with saline)?
A: marked depression of respiratory frequency and amplitude

Q: Which “fR in the presence of the antagonist” value [2] does the source give for `CCN1C[C@]2(COC(=O)c3ccccc3N3C(=O)C[C@H](C)C3=O)CC[C@H](OC)[C@@]34[C@@H]5C[C@H]6[C@H](OC)[C@@H]5[C@](O)(C[C@@H]6OC)[C@](O)([C@@H](OC)[C@H]23)[C@@H]14` [MLA] here?
A: fR was slower

Q: What does the source list for `OCCCCC#Cc1cncc(OC[C@@H]2CCN2)c1` [sazetidine-A, 6-[5-[(2S)-2-Azetidinylmethoxy]-3-pyridinyl]-5-hexyn-1-ol]?
A: significant alteration of baseline VE (rat pups): Neither; agonist activity ((α4)3(β2)2 receptors): nearly no agonist activity; agonist activity ((α4)2(β2)3 receptors): full agonist activity

Q: For `C[C@@H](NC(=O)[C@@H](N)Cc1ccc(O)cc1)C(=O)NCC(=O)N(C)[C@@H](Cc1ccccc1)C(=O)NCCO` [DAMGO, [D-Ala2, NMe-Phe4, Gly-ol5]-enkephalin], which “effect of DAMGO on fR” value [4] is on record?
A: caused a suppression of fR

Q: And the “effect of DAMGO on respiratory frequency and amplitude” value [4]?
A: induced suppression of respiratory frequency and amplitude

Q: And the “respiratory depression by DAMGO (fR and burst area)” value [2]?
A: suppressed fR and burst area

Q: Which baseline minute ventilation (adult rats [1]) does the source give for `CNCC/C=C/c1cccnc1` [Rivanicline, (E)-N-Methyl-4-(3-pyridinyl)-3-butene-1-amine] here?
A: 98.4±3.6 % of control

Q: What about the baseline respiratory amplitude [2] of the same compound?
A: without marked effects

Q: What about the baseline respiratory frequency [2] of the same compound?
A: increased baseline respiratory frequency

Q: And the “reversal … (frequency and amplitude)” value [2]?
A: clear reversal

Q: What does the source list for `O=C(N[C@H]1CN2CCC1CC2)c1ccc(Cl)cc1` [PNU282987]?
A: significant alteration of baseline VE (rat pups): Neither; baseline minute ventilation (adult rats [1]): 102.9±4.1 % of control; baseline respiratory frequency [4]: had no effect; baseline fR [2]: very modest increase in fR; baseline respiratory frequency [2]: very modest increase in respiratory frequency

Q: With `CN1CCCC1CCc1ccc(S)cc1` (racemic) [SIB 1553A, (±)-4-[2-((N-methyl)-2-pyrrolidinyl)ethyl]thiophenol] as the compound, how does the “SIB 1553A effects with DHβE co-administered” value (newborn rats [5]; DHβE 6 mg/kg co-administration with fentanyl, SIB 1553A 40 mg/kg) read?
A: only partially blocked

Q: What about the “fentanyl-induced respiratory depression with mecamylamine co-administered” value (newborn rats [5]; fentanyl 35 μg/kg + mecamylamine 6 mg/kg, SIB 1553A 40 mg/kg) of the same compound?
A: had no effects

Q: And the “fentanyl-induced decrease in tidal volume (VT)” value (newborn rats [5]; fentanyl 35 μg/kg, SIB 1553A 40 mg/kg sc)?
A: without marked effects

Q: And the “fentanyl-induced decrease in respiratory rate (fR)” value (newborn rats [5]; fentanyl 35 μg/kg, SIB 1553A 40 mg/kg sc 7 min later)?
A: partially reversed

Q: With `c1cncc(OC[C@@H]2CCN2)c1` [A85380, 3-(2(s)-azetidinylmethoxy) pyridine] as the compound, how does the “ipsilateral respiratory amplitude after C2 hemisection” value [6] read?
A: partially increased

Q: And the “respiratory frequency after C2 hemisection” value [6]?
A: increased the respiratory frequency

Q: And the “nocifensive response 20-40 minutes post formalin, baseline” value (adult rats [7]; rat, in vivo, sc, 0.06 mg/kg)?
A: decreased nocifensive response

Q: And the “significant alteration of baseline VE” value (rat pups)?
A: Neither

Q: What about the baseline minute ventilation (adult rats [1]) of the same compound?
A: 97.8±3.1 % of control

Q: What about the “DAMGO-induced suppression of fR” value [4] of the same compound?
A: alleviated

Q: What about the “DAMGO-induced suppression of respiratory frequency and amplitude” value [4] of the same compound?
A: alleviated

Q: What about the “baseline respiratory burst area” value [4] of the same compound?
A: decreased baseline respiratory burst area

Q: What about the baseline respiratory frequency [4] of the same compound?
A: increased respiratory frequency; also recorded: increased fR

Q: What about the “loss of respiratory drive and motor output in low potassium” value [4] of the same compound?
A: potently reversed the loss of respiratory drive and motor output

Q: And the respiratory amplitude [4]?
A: decreased the respiratory amplitude

Q: What about the propofol-induced respiratory depression (newborn rats [3]; A85380 0.03 mg/kg ip co-administered with propofol 30 mg/kg ip) of the same compound?
A: dramatically prevented

Q: What about the “baseline fR” value [2] of the same compound?
A: increased baseline fR

Q: And the baseline respiratory amplitude [2]?
A: without marked effects

Q: And the baseline respiratory frequency [2]?
A: increased baseline respiratory frequency

Q: What about the “concentrations at which baseline fR is increased” value [2] of the same compound?
A: above 5 nM

Q: What about the “ethanol and pentobarbital-induced respiratory depression” value [2] of the same compound?
A: alleviated

Q: What about the “reversal of DAMGO-induced respiratory depression (decrease in fR and burst area)” value [2] of the same compound?
A: clear reversal

Q: And the “reversal … (frequency and amplitude)” value [2]?
A: clear reversal

Q: What about the “weak respiratory rhythm and XII motor output” value [2] of the same compound?
A: increased respiratory frequency, amplitude and bursting duration

Q: And the “paw withdrawal latency to thermal stimuli, baseline” value (adult rats [8])?
A: marked increase in paw withdrawal latency

Q: Which “significant alteration of baseline VE” value (rat pups) does the source give for `C(#Cc1cncc(OC[C@@H]2CCN2)c1)c1ccccc1` [VMY-2-95, 3-[(2S)-2-Azetidinylmethoxy]-5-(2-phenylethynyl)-pyridine] here?
A: Neither

Q: And the “penetration of the blood-brain barrier” value [9]?
A: better penetration of the blood-brain barrier

Q: Which results are given for dihydro-beta-erythroidine [DHβE]?
A: significant alteration of baseline VE (rat pups): Neither; reversal of A85380 (25 nM) effects by antagonist ([4]; DHβE 200 nM subsequent bath application): reversed; fR in the presence of the antagonist [2]: fR was slower

Q: What does the source list for `CN1[C@@H](CC(=O)c2ccccc2)CCC[C@H]1C[C@H](O)c1ccccc1` [lobeline, 2-((2R,6S)-6-((S)-2-Hydroxy-2-phenylethyl)-1-methylpiperidin-2-yl)-1-phenylethanone]?
A: nocifensive response, phase II (adult rats [7]; lobeline 3 mg/kg iv alone): tended to decrease the nocifensive response in the phase II, but the difference is not significant; nocifensive response, phase I (adult rats [7]; lobeline 3 mg/kg iv alone, formalin 30 min post lobeline): decreased nocifensive response; VE (adult rats [1]; lobeline 3 mg/kg iv alone): 116.2±8.7 % of control; VE (adult rats [1]; lobeline 6 mg/kg ip alone): did not affect VE; loss of righting reflex (adult rats [10]): 22.4 ± 7.3 min

Q: For `CN1CCCC1c1cccnc1` (centres unmarked) [nicotine], which “significant alteration of baseline VE” value (rat pups) is on record?
A: Neither

Q: And the “baseline fR” value [2]?
A: caused an increase of baseline fR

Q: And the “concentrations at which baseline fR is increased” value [2]?
A: above 200 nM

Q: What about the “reversal of DAMGO-induced respiratory depression (decrease in fR and burst area)” value [2] of the same compound?
A: clear reversal
